Experimental data as given in ChEMBL document CHEMBL3132783, “Design, synthesis and biological evaluation of novel ligustrazinylated derivatives as potent cardiovascular agents” (Medchemcomm, 2013).

Tests used:
[1] = Cytoprotective activity in H2O2-induced human ECV304 cells assessed as proliferation rate incubated for 24 hrs prior to H2O2-challenge measured after 12 hrs by MTT assay; type: functional, cell-based; conditions: ECV-304
[2] = Cytoprotective activity in H2O2-induced human ECV304 cells assessed as proliferation rate at 12.5 uM incubated for 24 hrs prior to H2O2-challenge measured after 12 hrs by MTT assay relative to control; type: functional; conditions: ECV-304, read-out: Activity
[3] = Cytoprotective activity in H2O2-induced human ECV304 cells assessed as proliferation rate at 25 uM incubated for 24 hrs prior to H2O2-challenge measured after 12 hrs by MTT assay relative to control; type: functional; conditions: ECV-304, read-out: Activity
[4] = Cytoprotective activity in H2O2-induced human ECV304 cells assessed as proliferation rate at 50 uM incubated for 24 hrs prior to H2O2-challenge measured after 12 hrs by MTT assay relative to control; type: functional; conditions: ECV-304, read-out: Activity
[5] = Cytoprotective activity in H2O2-induced human ECV304 cells assessed as proliferation rate at 100 uM incubated for 24 hrs prior to H2O2-challenge measured after 12 hrs by MTT assay relative to control; type: functional; conditions: ECV-304, read-out: Activity
[6] = Antiplatelet activity in rabbit platelet rich plasma assessed as inhibition of ADP-induced aggregation treated for 5 mins prior to ADP-challenge; type: functional; conditions: Oryctolagus cuniculus
[7] = Antiplatelet activity in rabbit platelet rich plasma assessed as inhibition of ADP-induced aggregation at 0.05 mM treated for 5 mins prior to ADP-challenge relative to control; type: functional; conditions: Oryctolagus cuniculus
[8] = Antiplatelet activity in rabbit platelet rich plasma assessed as inhibition of ADP-induced aggregation at 0.1 mM treated for 5 mins prior to ADP-challenge relative to control; type: functional; conditions: Oryctolagus cuniculus
[9] = Antiplatelet activity in rabbit platelet rich plasma assessed as inhibition of ADP-induced aggregation at 0.4 mM treated for 5 mins prior to ADP-challenge relative to control; type: functional; conditions: Oryctolagus cuniculus
[10] = Antiplatelet activity in rabbit platelet rich plasma assessed as inhibition of ADP-induced aggregation at 0.2 mM treated for 5 mins prior to ADP-challenge relative to control; type: functional; conditions: Oryctolagus cuniculus
ECV-304 = assay: Ratio of ligustrazine EC50 to compound EC50 for human ECV304 cells; type: functional

| SMILES | EC50 [1] [µM] | growth at 12.5 µM [2] [%] | growth at 25 µM [3] [%] | growth at 50 µM [4] [%] | growth at 100 µM [5] [%] | IC50 [6] [mM] | inhibition at 50 µM [7] [%] | inhibition at 100 µM [8] [%] | inhibition at 400 µM [9] [%] | inhibition at 200 µM [10] [%] | Ratio EC50 (ECV-304) |
| --- | --- | --- | --- | --- | --- | --- | --- | --- | --- | --- | --- |
| Cc1nc(C)c(COc2ccc3ccc(=O)oc3c2)nc1C | 140 | 38.8 | 42 | 44.2 | 46.6 | 1.3 | 21.7 | 25 | 39.2 | 35.1 | – |
| Cc1nc(C)c(CSc2nnnn2-c2ccccc2)nc1C | – | -135 | -119 | -78.4 | -136 | > 2 | -4.07 | 12.3 | 9.33 | 4.93 | – |
| Cc1nc(C)c(CSc2nnnn2-c2cccc3ccccc23)nc1C | – | – | – | – | – | > 2 | 2.25 | 10.2 | 13.1 | 5.75 | – |
| CSc1snc(OCc2nc(C)c(C)nc2C)c1C#N | > 100000 | – | 25.2 | 160 | – | 1.5 | 3.36 | 13.5 | 32.2 | 22.6 | – |
| Cc1nc(C)c(Cn2nnc3ccccc32)nc1C | > 100000 | 23.2 | 25.1 | -96.5 | -178 | 1.8 | -2.21 | 7.23 | 28.3 | 16.9 | – |
| Cc1nc(C)c(Cn2cnc3ccccc32)nc1C | – | -91.8 | -13.8 | 0.25 | – | 1.9 | -0.97 | 11 | 30.9 | 13.1 | – |
| Cc1nc(C)c(CNC(=O)CN2CCCC2=O)nc1C | 1300 | -35.8 | 14.5 | 23.4 | 26.4 | 1.2 | 3.23 | 10.4 | 36 | 19.6 | – |
| Cc1nc(C)c(COC(=O)CCCC[C@@H]2CCSS2)nc1C | 4 | -60 | 71.4 | 160 | 206 | > 2 | 18.8 | 13.4 | 27.6 | 29 | 150 |
| C=CCSSCc1nc(C)c(C)nc1C | 1100 | 13 | -17.6 | 15 | 51.1 | 1.3 | 16.7 | 18 | 38.1 | 30.4 | – |
| C=CCc1ccc(OCc2nc(C)c(C)nc2C)c(OC)c1 | 200 | 22 | 28.2 | 30.1 | 36 | > 2 | -4.29 | 1.45 | 6.42 | 12.3 | – |
| Cc1nc(C)c(COc2ccc3c(C)cc(=O)oc3c2)nc1C | 140 | 12 | 21 | 25.8 | 36.6 | 0.92 | 2.27 | 8.73 | 40.1 | 17.2 | – |
| Cc1nc(C)c(CSc2nnc(-c3cccs3)n2N)nc1C | 330 | 36.2 | 37.4 | 38.2 | 40.2 | 0.81 | 0.15 | 13.4 | 38.5 | 23.2 | – |
| Cc1nc(C)c(CSc2nc(C)c(CC(=O)O)s2)nc1C | 150 | 44.9 | 46.2 | 47 | 48.1 | 0.62 | 27.5 | 35 | 46.9 | 38.3 | – |
| Cc1nc(C)c(CSc2nnnn2C)nc1C | – | – | -180 | -77 | -117 | > 2 | 1.53 | 4.04 | 9.95 | 13.5 | – |
| Cc1nc(C)c(CSc2nc3ccccc3s2)nc1C | 360 | 4.33 | 7.95 | 9.51 | 17.2 | 1.6 | 5.12 | 13.4 | 33.4 | 20.9 | – |
| Cc1nc(C)c(CSc2nnc(-c3ccco3)n2N)nc1C | 420 | 19 | 21.3 | 23.5 | 25.8 | 0.94 | -2.62 | 10.4 | 35.6 | 20 | – |
| CCOC(=O)c1ccccc1OCc1nc(C)c(C)nc1C | 1000 | 17.3 | 18.1 | 19.2 | 20 | 2 | 8.7 | 10.8 | 21.2 | 16.8 | – |
| CCOC(=O)c1ccc(OCc2nc(C)c(C)nc2C)c(OC)c1 | 3200 | 14.9 | 15.5 | 15.8 | 16 | > 2 | 9.7 | 3.1 | -3.31 | 7.48 | – |
| Cc1nc(C)c(COc2ccccc2C(=O)O)nc1C | 610 | 14.1 | 17.4 | 18.2 | 20 | 0.4 | 15.6 | 32 | 51.7 | 34.6 | – |
| COc1cc(C(=O)O)ccc1OCc1nc(C)c(C)nc1C | 810 | 15.1 | 16.4 | 18.4 | 19 | > 2 | 11.2 | 1.01 | 4.41 | -11.2 | – |
| Cc1nc(C)c(C)nc1C [LIGUSTRAZINE] | 600 | 10.4 | 12.7 | 22.1 | 42.8 | – | – | – | – | – | – |
| O=C(O)CCCCC1CCSS1 (stereo not drawn) [LIPOIC ACID, ALPHA] | 68 | 30.5 | -12.3 | 48.7 | 58.1 | – | – | – | – | – | – |
| O=C(O)/C=C/c1ccc(Cn2ccnc2)cc1 [OZAGREL] | – | – | – | – | – | 0.36 | 23.3 | 27.3 | 55.3 | 45.4 | – |
